Assay [1] has as its target T1, EphB4 (Homo sapiens, UniProt P54760).
T1 sequence (P54760 16-987): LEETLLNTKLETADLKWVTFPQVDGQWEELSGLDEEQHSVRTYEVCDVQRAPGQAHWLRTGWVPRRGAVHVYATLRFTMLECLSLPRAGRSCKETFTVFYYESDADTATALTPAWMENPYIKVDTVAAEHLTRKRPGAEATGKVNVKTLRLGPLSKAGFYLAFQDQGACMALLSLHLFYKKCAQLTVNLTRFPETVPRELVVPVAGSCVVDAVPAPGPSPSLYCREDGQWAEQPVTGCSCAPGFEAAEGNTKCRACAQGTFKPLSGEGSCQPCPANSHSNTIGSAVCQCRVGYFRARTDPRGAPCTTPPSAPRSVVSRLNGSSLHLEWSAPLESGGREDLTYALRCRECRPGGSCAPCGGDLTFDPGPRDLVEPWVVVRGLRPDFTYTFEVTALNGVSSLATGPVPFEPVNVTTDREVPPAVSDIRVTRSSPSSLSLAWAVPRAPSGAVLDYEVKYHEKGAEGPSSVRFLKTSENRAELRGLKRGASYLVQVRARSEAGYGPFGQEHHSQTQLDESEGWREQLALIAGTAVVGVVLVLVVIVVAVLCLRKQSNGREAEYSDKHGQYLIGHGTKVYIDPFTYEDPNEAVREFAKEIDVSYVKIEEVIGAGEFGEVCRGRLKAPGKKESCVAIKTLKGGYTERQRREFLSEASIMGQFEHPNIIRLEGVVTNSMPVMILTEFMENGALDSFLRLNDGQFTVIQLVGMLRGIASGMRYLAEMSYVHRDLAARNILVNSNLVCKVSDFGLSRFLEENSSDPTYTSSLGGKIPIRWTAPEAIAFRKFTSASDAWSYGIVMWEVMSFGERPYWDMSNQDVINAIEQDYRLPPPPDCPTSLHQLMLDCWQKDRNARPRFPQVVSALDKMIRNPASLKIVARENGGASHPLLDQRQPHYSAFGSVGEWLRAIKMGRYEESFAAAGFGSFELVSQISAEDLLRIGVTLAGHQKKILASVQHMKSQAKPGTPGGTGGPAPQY
Nature of the assay: Omnia kinetic assay (Omnia Tyr Recombinant Kit KNZ4051). The format is biochemical. The arrangement: purchased Proqinase, Germany. The protocol: The data obtained in these experiments are shown in a specific velocity plot (FIG. 2), where the ratio of the initial velocities for the non-inhibited and inhibited reactions at a given ATP concentration (v0/vi in FIG. 2) is plotted versus σ/(1+σ), with σ=[ATP]/Km. […] Kinetic assay. […] Fluorescence progress curves are measured upon excitation at 360 nm and emission at 485 nm. […] Biosource Omnia. […] The assay is run at 30° C. for 1 hour.

Assay [2] addresses T1, EphB4. Nature of the assay: Cerep FRET-based enzymatic assay. In kind it is biochemical. As to conditions: ATP 0.75 μM, read-out: Enzymatic assays IC50 Cerep. From the text:
Similar values of IC50 compared to the original FRET-based enzymatic assay (Z'Lyte) are obtained (Table 2).

For assay [3], the target named is T2, myc-tagged full-length human EphB4 (Homo sapiens, UniProt P54760).
T2 construct: stably transfected with myc-tagged full-length human EphB4; expressed in transfected cells; host or cells: CHO-FRT cells (Flip-In System, Invitrogen)
T2 sequence (P54760 16-987): T1 sequence (P54760 16-987)
Put plainly: Phospho-EphB4 ELISA of CHO cells (EphB4 autophosphorylation). The format is cell-based. How it is done: Phospho-EphB4 ELISA of CHO cells. The ELISA assay was performed as follows: Chinese hamster ovary (CHO)-FRT cells are stably transfected with myc-tagged full-length human EphB4 according to the Flip-In System protocol (Invitrogen, USA). […] Cells of this clone are preincubated with EphB4 inhibitors for 15 minutes and then stimulated with preclustered ephrinB2-Fc for 45 minutes at 37° C. Cells are lysed, transferred to a 96-well plate coated with anti-myc antibody and incubated overnight at 4° C. After incubation with anti-phosphotyrosine antibody, reactions are developed with BM Blue peroxydase substrate, and autophosphorylation of EphB4 is quantified by measuring absorption at 450 nm.
Background: An ELISA detects its analyte on a solid surface through an enzyme-linked reagent.

In assay [4] the target is T1, EphB4. Nature of the assay: IC50 and % inhibition (Table 3). The format is biochemical. To be noted: for pIC50: repeated determinations.
For assay [5], the target named is T1, EphB4. Put plainly: Panvera Z'Lyte FRET-based enzymatic assay.
Procedure: In vitro kinase activity was measured using the Panvera Z'Lyte Tyr2 kinase assay PV3191 (Invitrogen, USA), according to the manufacturer's instructions. […] The reaction is performed at room temperature for 1 hour.

pIC50, pKi: −log10 of the molar value. Where “and” joins values, the source holds several entries; their conditions need not be identical. Identical values can stand only once.

In general, pKi refers to −log10 of the Ki, conventionally taken in molar units. In general, pIC50 refers to the IC50 on a negative log10 scale, so that one unit is a factor of ten. As usually defined, the % inhibition is the drop in the measured response relative to a control, in per cent. Lower therefore signals little suppression. For `Cn1c(=O)[nH]c(=O)c2c1nc1n(CCCCO)c(-c3ccccc3)cn21` [Compound 2], in assay [1] (0.01% Triton X-100), the “Sensitivity of inhibition to detergent (in words)” value is on record as “detergent-insensitive inhibition”. In addition, the “Mode of inhibition versus ATP (specific velocity plot)” value in assay [1] (ATP 31.25 to 500 μM, Km 158 μM) is listed as “ATP competitive”. In addition, in assay [1] (two experiments, with and without 0.01% Triton X-100, read-out: Ki corresponding to Omnia IC50), the pKi was 5.57 and 5.54. Further, the negative logarithm of the IC50 (pIC50) in assay [1] (two experiments, without and with 0.01% Triton X-100, ATP 125 μM, 30° C. 1 hour, read-out: Enzymatic assays IC50 Omnia) was 5.25 and 5.10; in assay [2], 5.17; in assay [4] (IC50, Table 3) it was 5.17; in assay [4] (Table 3, read-out: IC50) it was 5.10 and 5.15; in assay [5] it was roughly 5.80; in assay [5] (Enzymatic assays IC50 Z′Lyte, FRET-based, 10 μM ATP, 1% DMSO, room temperature 1 hour), 5.85 and 5.74. Also, the “Inhibitory effects on EphB4 autophosphorylation in CHO cells (in words)” value in assay [3] (20 μM) is reported as “only mild inhibitory effects”. In addition, the “Cell-based assay percent inhibition” value in assay [3] (in CHO cells, at 20 μM) is listed as “neg”. Also, the “% inhibition at indicated concentration C” value in assay [4] (C = 10 μM, 10 µM) was 67% and 68% and 59% and 64%. Besides, the inhibition at 10 µM in assay [4] (C = 10 μM, read-out: % inhibition at indicated concentration C) was 72%.

The values above are taken from patent US8765775B2, “Anti-angiogenic compounds” (Universitaet Zuerich, priority 2008, dated 2014).
